Patent US6056958A, “Method of treatment of arterial and venous thromboembolic disorders” (Dupont Pharmaceuticals, priority 1997, dated 2000)
Like-named read-outs stand apart in the source and are kept apart here. Non-standard residues stand in square brackets, D forms with d. Residues, ends and D or L forms follow the SMILES beside them. 3Amb = NCc1cccc(C(=O)O)c1

Legend:
GPIIb/IIIa receptor = biological target: T1, GPIIb/IIIa receptor (Homo sapiens, UniProt P05106+P08514); assay: GPIIb/IIIa Receptor-Biotinylated Fibrinogen Binding Assay; settings: inhibition of fibrinogen binding to purified GPIIb/IIIa
T1 construct: The GPIIb/IIIa receptor was purified from human platelets; from tissue; host or cells: human platelets (purified according to D'Souza et al., J. Biol. Chem. 1990, 265:3440-3446)
Description: Compounds may be tested for their ability to block binding of vitronectin to the αv /β3 receptor and to block the binding of fibrinogen to GPIIb/IIIa receptor in the αv /β3 -Biotinylated Vitronectin Binding Assay and GPIIb/IIIa Receptor-Biotinylated Fibrinogen Binding Assay described below.
GPIIb/IIIa Receptor-Biotinylated Fibrinogen Binding Assay
The GPIIb/IIIa receptor was purified from human platelets according to D'Souza et al. (J. Biol. Chem., 1990, 265:3440-3446). The purified GPIIb/IIIa protein was coated on 96 well plates and the competition between test compound and biotinylated fibrinogen for binding to the plate-immobilized GPIIb/IIIa receptor was determined by ELISA as described below. Bound fibrinogen was detected using an avidin-alkaline phosphatase conjugate and paranitrophenol detection at […]. For IC50 determination, test agent was added at various concentrations to plates coated with purified GPIIb/IIIa protein which was followed by the addition of biotinylated fibrinogen. The inhibitory binding constant (Ki) of test agents were calculated under this assay system using standard Michaelis-Menten analysis. The IC50 is the concentration of test substance needed to block 50% of the fibrinogen binding to the GPIIb/IIIa receptor.
The following reagents may be used in the GPIIb/IIIa-fibrinogen binding ELISA:
purified GPIIb/IIIa (148.8 μg/mL);
biotinylated fibrinogen (~1 mg/mL or 3000 nM);
anti-biotin alkaline phosphatase conjugate (Sigma no. A7418);
flat-bottom, high binding, 96-well plates (Costar Cat. no. 3590);
phosphatase substrate (Sigma 104) (40 mg capsules);
bovine serum albumin (BSA) (Sigma no. A3294);
Alkaline Phosphatase buffer--0.1 M glycine-HCl, 1 mM MgCl2.6H2 O, 1 mM ZnCl2, pH 10.4;
Binding buffer--20 mM Tris-HCl, 150 mM NaCl, 1 mM CaCl2.2H2 O, 0.02% NaN3, pH 7.0;
Buffer A--50 mM Tris-HCl, 100 mM NaCl, 2 mM CaCl2.2H2 O, 0.02% NaN3, pH 7.4;
Buffer A+3.5% BSA (Blocking buffer);
Buffer A+0.1% BSA (Dilution buffer);
The following method steps are used in the GPIIb/IIIa-fibrinogen binding ELISA:
Coat plates with GPIIb/IIIa in Binding buffer (125 ng/100 μL/well) overnight at 4° C. (Leave first column uncoated for non-specific binding). Cover and freeze plates at -70° C. until used. Thaw plate 1 hour at room temperature or overnight at 4° C. Discard coating solution and wash once with 200 μL Binding buffer per well. Block plate 2 hours at room temperature on shaker with 200 μl Buffer A+3.5% BSA (Blocking buffer) per well. Discard Blocking buffer and wash once with 200 μL Buffer A+0.1% BSA (Dilution buffer) per well. Pipet 11 μL of test compound (10× the concentration to be tested in Dilution buffer) into duplicate wells. […] Read plate at 405 nm. Blank against non-specific binding (NSB) well. % Inhibition is calculated as 100-(Test Compound Abs/Total Abs)×100.

[1] = test system: dog thrombosis model (carotid artery, femoral artery, femoral vein); assay: Carotid, Femoral Artery and Femoral Vein Thrombosis in Dogs (Electrolytic Injury Model); assay type: in vivo; settings: for Incidence of Occlusion / Time to Occlusion / Blood Flow, Basal / Blood Flow, End: dog carotid artery; for Incidence of Occlusion: saline 44/44; for Time to Occlusion: saline 93 ±30.4; for Blood Flow, End: saline 0; for Thrombus Weight (wet, mg), left femoral vein / Thrombus Weight (wet, mg), left carotid artery: dog, P<0.05
Description: Carotid, Femoral Artery and Femoral Vein Thrombosis In Dogs (Electrolytic Injury Model)
The thrombosis model used in this study is a modification of the one described by Rote et al., J. Cardiovascular Pharmacolgy, 1993, 23:194-202. The experimental procedure provides the formation of a platelet rich intravascular thrombus at the site of the electrolytically-induced lesion in the arterial side. The femoral artery and carotid artery responses to the electrolytic injury are similar to that observed in the canine coronary artery in which intimal wall injury secondary to application of a direct anodal current leads to platelet adherence with the resultant occlusive thrombus formation (Rote et al., J. Cardiovascular Pharmacolgy, 1993, 23:194-202; Mousa et al., Circulation, 1994, 89:3-12). Animals were instrumented and a 20-30 mm segment of the femoral or carotid arteries were exposed and freed from facia, and branches were tied. Anodal current was applied using an intravascular electrode Penetration of the vessel wall by the electrode was facilitated by attaching the tip of a 23 gauge hypodermic needle to the uninsulated part of the electrode. Each intra-arterial electrode was connected to the positive pole (anodal) of a dual channel stimulator (Ni-Cad battery, 9 volts connected to 250,000 Ohm potentiometer in series). The cathode was connected to a distant subcutaneous site. The current delivered to the arterial wall was monitored continuously and maintained at 200 μA. Proper positioning of the electrode in the artery was confirmed by visual inspection at the end of each experiment. In all experiments the anodal current was applied for a maximum period of 3 hours. Arterial flow was monitored throughout the experiment by placing a doppler flow probe connected to a flow meter around the distal portion of the vessel segment. Similar procedures were applied to the femoral vein. […]

[2] = Bleeding Time in anesthetized dogs (tongue incision); settings: dog, IV, saline 3-5
Description: (§1) A Simplate device (Organo Teknika) was applied to the surface of the tongue to make a uniform incision and blood was blotted with filter paper at 30 seconds intervals until bleeding completely stopped, with a 15 minutes cutoff time. Bleeding time was assessed before and at different intervals post-administration of test agent.

[3] = dog, in vivo, iv
Description: as §1

[4] = dog, in vivo
Description: Clotting Assay (Thrombin and Apothrombin Times)
Arterial blood samples were collected in 1/10th volume 3.8% sodium citrate and stored on ice for less than ten 10 minutes. Samples were centrifuged (10,000× g, 1.5 minutes) and plasma separated from cellular components. Clotting assays were performed within 30 minutes of collection in a fibrometer (BBL Bibrosystem) at 37° C. Thrombin time determinations were performed at a final thrombin concentration of 4 units/mL. Activated partial thromboplastin time (also referred to as apothrombin time) (APTT) was determined by incubating 0.1 mL plasma with 0.1 mL APTT reagent (Sigma Chemical) for three minutes, followed by addition of 0.1 mL of 25 mM CaCl2. Prothrombin time was determined by incubating 0.1 mL plasma with 0.1 mL thromboplastin, and clotting initiated by addition of 0.1 mL of 25 mM CaCl2. Assays were performed in duplicate.

[5] = 0.1 mg/kg IV bolus + 0.1 mg/kg IV infusion 3 hr
[6] = 0.1 mg/kg IV bolus + 0.4 mg/kg IV infusion 3 hr

T1 sequence (P08514 32-887 limits assumed): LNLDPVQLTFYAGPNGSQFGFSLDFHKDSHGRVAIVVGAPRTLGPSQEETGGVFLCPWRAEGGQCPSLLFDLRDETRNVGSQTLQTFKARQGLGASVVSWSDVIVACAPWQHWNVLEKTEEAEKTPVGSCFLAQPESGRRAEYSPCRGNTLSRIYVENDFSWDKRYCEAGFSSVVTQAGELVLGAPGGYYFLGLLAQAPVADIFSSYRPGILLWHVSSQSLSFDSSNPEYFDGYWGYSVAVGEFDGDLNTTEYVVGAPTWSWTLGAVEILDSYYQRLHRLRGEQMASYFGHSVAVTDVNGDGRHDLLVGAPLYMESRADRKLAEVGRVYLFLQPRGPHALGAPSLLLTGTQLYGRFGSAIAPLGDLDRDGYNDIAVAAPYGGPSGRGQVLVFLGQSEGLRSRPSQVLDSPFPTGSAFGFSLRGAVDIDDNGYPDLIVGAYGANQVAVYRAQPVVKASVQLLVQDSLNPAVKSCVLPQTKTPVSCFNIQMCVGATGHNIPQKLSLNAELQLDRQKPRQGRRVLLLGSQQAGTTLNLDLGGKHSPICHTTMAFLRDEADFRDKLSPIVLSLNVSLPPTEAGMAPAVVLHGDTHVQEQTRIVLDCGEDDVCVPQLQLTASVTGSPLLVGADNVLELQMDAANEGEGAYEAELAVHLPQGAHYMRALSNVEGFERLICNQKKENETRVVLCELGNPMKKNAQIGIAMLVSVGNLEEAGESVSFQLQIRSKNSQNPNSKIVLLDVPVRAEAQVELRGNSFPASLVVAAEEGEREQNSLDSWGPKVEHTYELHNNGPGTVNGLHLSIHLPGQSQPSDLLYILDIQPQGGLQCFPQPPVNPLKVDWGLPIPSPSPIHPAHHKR
T1 sequence (P08514 891-1039 partner limits assumed): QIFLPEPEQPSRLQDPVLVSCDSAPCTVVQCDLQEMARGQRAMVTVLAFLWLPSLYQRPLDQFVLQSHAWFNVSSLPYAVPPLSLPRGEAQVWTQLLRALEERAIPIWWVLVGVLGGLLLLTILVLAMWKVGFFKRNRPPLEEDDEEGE
T1 sequence (P05106 27-788): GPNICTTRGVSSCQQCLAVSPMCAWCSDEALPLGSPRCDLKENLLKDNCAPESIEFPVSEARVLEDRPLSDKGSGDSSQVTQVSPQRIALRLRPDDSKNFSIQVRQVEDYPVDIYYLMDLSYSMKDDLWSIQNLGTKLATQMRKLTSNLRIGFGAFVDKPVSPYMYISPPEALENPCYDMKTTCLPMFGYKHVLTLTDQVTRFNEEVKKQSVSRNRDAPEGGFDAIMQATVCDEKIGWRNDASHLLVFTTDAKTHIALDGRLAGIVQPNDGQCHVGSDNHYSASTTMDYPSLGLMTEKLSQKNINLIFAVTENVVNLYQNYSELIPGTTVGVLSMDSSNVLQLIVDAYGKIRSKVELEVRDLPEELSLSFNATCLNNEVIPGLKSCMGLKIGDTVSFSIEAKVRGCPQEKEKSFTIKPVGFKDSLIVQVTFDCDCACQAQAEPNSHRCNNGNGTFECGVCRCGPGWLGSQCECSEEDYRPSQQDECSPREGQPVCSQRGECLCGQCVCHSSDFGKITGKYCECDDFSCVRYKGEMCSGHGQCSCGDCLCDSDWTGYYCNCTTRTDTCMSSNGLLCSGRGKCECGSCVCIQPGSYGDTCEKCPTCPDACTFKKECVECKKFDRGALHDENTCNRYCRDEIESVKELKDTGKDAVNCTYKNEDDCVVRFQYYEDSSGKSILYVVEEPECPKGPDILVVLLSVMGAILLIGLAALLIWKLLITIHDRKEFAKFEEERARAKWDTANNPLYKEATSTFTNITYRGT

Structure (SMILES): C[C@@H]1NC(=O)c2cccc(c2)CNC(=O)[C@H](CC(=O)O)NC(=O)CNC(=O)[C@H](CCCNC(=N)N)NC1=O [Compound A, cyclo-(Ala-Arg-Gly-Asp-Mamb)] (cyclo(RGD[3Amb]A))
- IC50 (GPIIb/IIIa receptor): 408 nM
- Incidence of Occlusion [1, 5]: 0/4
- Time to Occlusion [1, 5]: > 180 min
- Blood Flow, Basal ([1]; 0.1 mg/kg IV bolus + 0.1 mg/kg IV infusion 3 hr, spread ±4.7): 29.4 cm/s
- Blood Flow, End ([1]; 0.1 mg/kg IV bolus + 0.1 mg/kg IV infusion 3 hr, spread ±11): 16.3 cm/s
- Incidence of Occlusion [1, 6]: 0/4
- Time to Occlusion [1, 6]: > 180 min
- Blood Flow, Basal ([1]; 0.1 mg/kg IV bolus + 0.4 mg/kg IV infusion 3 hr, spread ±2.7): 30.2 cm/s
- Blood Flow, End ([1]; 0.1 mg/kg IV bolus + 0.4 mg/kg IV infusion 3 hr, spread ±8.1): 23.8 cm/s
- Cyclic Flow Rate (frequency/hr) ([1]; dog femoral artery, 0.1 mg/kg IV bolus + 0.1 mg/kg IV infusion 3 hr, n=4, mean ± SD, P<0.01, saline 8 ± 5.5): 0.5 ± 0.4 frequency/hr
- Thrombus Weight (wet, mg), left femoral vein ([1]; 0.1 mg/kg IV bolus + 0.4 mg/kg infusion 3 hr, n=4, mean ± SD, saline 18 ± 5): 2 ± 1 mg
- Thrombus Weight (wet, mg), left carotid artery ([1]; 0.1 mg/kg IV bolus + 0.4 mg/kg infusion 3 hr, n=4, mean ± SD, saline 53 ± 4): 13 ± 2 mg
- Thrombus Weight (wet, mg), left carotid artery ([1]; 1 mg/kg IV bolus, n=3, 200 μA, mean ± SD, saline right carotid 51 ± 4): 14 ± 4 mg
- Thrombus Weight (wet, mg), left femoral vein ([1]; 1 mg/kg IV bolus, n=3, 200 μA, mean ± SD, saline right femoral vein 18 ± 5): 4 ± 3 mg
- Bleeding Time ([2]; 1 mg/kg): 3 to 4 min
- Bleeding Time ([2]; 3 mg/kg): 3 to 4 min
- Bleeding Time ([2]; 10 mg/kg): 5 to 6 min

Structure (SMILES): N=C(N)NCCC[C@@H]1NC(=O)[C@@H]2CCCN2C(=O)c2cccc(c2)CNC(=O)[C@H](CC(=O)O)NC(=O)CNC1=O [Compound B, cyclo-(Pro-Arg-Gly-Asp-Mamb)] (cyclo(RGD[3Amb]P))
- IC50 (GPIIb/IIIa receptor): 1520 nM
- Bleeding Time ([3]; 1 mg/kg): 3 to 4 min
- Bleeding Time ([3]; 3 mg/kg): 3 to 4 min
- Bleeding Time ([3]; 10 mg/kg): 3 to 4 min
- effect on apothrombin time or thrombin time [4]: no effect on apothrombin time or thrombin time
